Laboratory results: the METLIN SMRT retention time set (Domingo-Almenara et al. 2019)

Assay: gradient 5% acetonitrile 3 min, to 50% in 2 min, to 85% in 15 min, held 3 min, 100 µL/min
Conditions: column: Zorbax Extend-C18 2.1 x 50 mm; eluents: water / acetonitrile, 0.1% formic acid
Summary of the method: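 The system's dead and dwell volumes were 40 μL and 900 μL, with a Zorbax Extend-C18 column (2.1 × 50 mm, 1.8 μm) run at 100 μL/min in water and acetonitrile containing 0.1% formic acid each. Pure standards were analyzed in mixtures of ~100 molecules by HPLC–quadrupole time-of-flight mass spectrometry in positive and negative ionization mode. Retention time was assigned from computationally picked, manually inspected adduct peaks.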

Row | RP-LC retention time | SMILES
1 | 805 s | CCN1C(=O)c2cccnc2Sc2cc(C(=O)NCc3ccc(F)cc3)ccc21
2 | 1050 s | CCN1C(=O)C2(CCN(S(=O)(=O)Cc3ccc(Cl)cc3)CC2)c2ccccc21
3 | 559 s | CN(C)c1ccc(C(CNC(=O)CN2C(=O)c3ccccc3C2=O)N2CCCC2)cc1 (configuration not stated)
4 | 834 s | Cc1cccc(NC(=O)N2CCC(C)(C(=O)NCc3ccc(F)cc3)CC2)c1C
5 | 1080 s | COc1ccc(Cl)cc1NC(=O)CC1CCCCN1S(=O)(=O)c1ccc(F)cc1 (configuration not stated)
6 | 805 s | CSc1ccc(CNC(=O)Cn2cc(-c3nnco3)c3ccccc32)cc1
7 | 609 s | O=C(NCCCN1CCCC1)C1CCN(Cc2cc3ccccc3n2Cc2ccccc2Cl)CC1
8 | 668 s | CC1=C(C(=O)OCCC#N)C(c2ccccc2Cl)NC(=O)N1 (configuration not stated)
9 | 935 s | CCOC(=O)c1nc(N2CCc3ccccc32)c2ccccc2n1
10 | 726 s | CCOC(=O)N1CCC2(CC1)N=C(c1ccc(OCC)cc1)CC(c1cc(Cl)ccc1O)N2 (configuration not stated)
11 | 980 s | O=C(c1ccc2c(c1)N(Cc1ccccc1)C(=O)CO2)N1CCc2ccccc21
12 | 850 s | O=C(Nc1cc(F)ccc1F)N1CCC(N2CCN(Cc3ccc(F)cc3)C2=O)CC1

The next lines start with the molecule.

Row | SMILES | RP-LC retention time
13 | Fc1ccc(C2Cn3nnc(-c4nc(-c5ccncc5)no4)c3CO2)cc1 (configuration not stated) | 912 s
14 | CCn1c(=O)c(C(=O)N2CCN(c3cc(C)ccc3C)CC2)nc2cccnc21 | 1040 s
15 | Cc1nc(Nc2ccc(F)cn2)sc1C(=O)N1CCN(C2CCCCC2)CC1 | 639 s
16 | CC(=O)N(Cc1nn(C)c2c1CN(Cc1cccc(O)c1)CC2)c1ccccc1 | 592 s
17 | Cc1ncc2c(n1)CCCN(CC(=O)NC1CC1)C2=O | 567 s
18 | Cc1nc(N2CCN(c3ccc(F)cc3)CC2)ncc1C(=O)O | 888 s
19 | Cc1cc(C(=O)N2CCCCC2c2nncn2CC2CC2)nn1C (configuration not stated) | 629 s
20 | CCN(CC)C(=O)c1ccc(-c2nc3cc(NS(=O)(=O)c4cc(C)ccc4C)ccc3n2C)cc1 | 739 s
21 | CC(C)CNC(=O)N1CCN(Cc2nc3cc(C(=O)N(C)C)ccc3o2)CC1 | 579 s
22 | CCOc1ccc(NC(=O)N2CCC(n3cnc4cccnc43)CC2)cc1 | 642 s
23 | CCc1nc2cc(-c3noc(-c4ccnn4C)n3)ccc2o1 | 971 s
24 | Cn1c(=O)c(NCc2cccc(C(F)(F)F)c2)nc2ccncc21 | 658 s
25 | CC(C)CC(=O)Nc1ccc(-n2cnc(C(=O)N3CCSCC3)c2)nc1 | 709 s
26 | Cc1nn2c(CNS(=O)(=O)c3c(C)nn(C)c3C)c(C)nc2s1 | 596 s
27 | CCCNC(=O)c1ccc2c(c1)CCCN2S(=O)(=O)CC | 753 s
28 | COC(=O)c1ccc(NC(=O)NCCn2c(C(F)(F)F)nc3cccnc32)cc1 | 706 s
29 | O=C(Nc1ccc2c(c1)OCCO2)C(=O)c1cccn1Cc1ccccc1 | 1040 s
30 | O=C(O)c1cn(-c2ccc(F)c(Cl)c2)nn1 | 727 s
31 | NC(=O)c1c(NC(=O)C2CCCN(C(=O)c3ccc4c(c3)OCCO4)C2)sc2c1CCCC2 (configuration not stated) | 839 s
32 | Cc1nnc2c(=O)n(CC(=O)NCc3ccc(F)cc3Cl)c3cccnc3n12 | 710 s
33 | Oc1cccc(-c2nc3cnc(Br)cn3c2Nc2ccc3c(c2)OCCO3)c1 | 794 s
34 | O=C(NC1CCCCCC1)C1CCN(c2cc(N3CCSCC3)ncn2)CC1 | 710 s
35 | Cc1ncsc1CN1CCCC(n2c(C)cnc2-c2cccnc2)C1 (configuration not stated) | 527 s
36 | O=S(=O)(Nc1cccnc1)c1ccc(Cl)c(-c2nnc(-c3ccccc3)o2)c1 | 807 s
37 | CCCN(CCC)CCCNC(=O)C1CCCN(c2ncc(-c3cccc(F)c3)cn2)C1 (configuration not stated) | 747 s
